test system: pFGFR4 in MDA-MB-453 cells; assay: FGFR4 signaling, pFGFR4 (MDA); Western blot (Method A), MSD (Method B), ELISA (Method C); format: cell-based; conditions: Homo sapiens, MDA-MB-453, MDA-MB-453 cells; Method B (MSD) for signaling EC50 determination
Description: The MDA-MB-453 protein concentrations were determined by a BCA Assay (Pierce, Rockford, Ill.). A sample of 50-100 μg of each lysate was separated by a 4-12% gradient (SDS-PAGE (Invitrogen)), transferred to a nitrocellulose membrane (Biorad, Hercules, Calif.), and probed with specific antibodies. Phospho-protein signals were quantitated using Odyssey Infrared Imaging (Li-Cor Biosciences).
To assess phospho-FGFR signaling, the blots were probed with anti-Phospho-FGFR (Y653/Y654) and total anti-FGFR antibodies. The phospho-FGFR signal was normalized to total FGFR expression for each sample.

Row | Structure (SMILES) | EC50 [nM]
1 | C=CC(=O)NC1CCCCC1Nc1ncc2c(n1)N(C1CCCN(C(=O)OC(C)(C)C)C1)C(=O)N(c1cc(OC)cc(OC)c1)C2 (racemic) [Compound I-45] | > 1000
2 | CCC(=O)Nc1ccccc1Nc1ncc2c(n1)N(C)C(=O)N(c1c(Cl)c(OC)cc(OC)c1Cl)C2 [Compound I-235] | 501 to 999
3 | C=CC(=O)Nc1ccccc1Nc1ncc2c(n1)N(C)C(=O)N(c1ccccc1)C2 [Compound I-38] | > 1000
4 | C=CC(=O)Nc1cc(-c2nccs2)ccc1Nc1ncc2c(n1)N(C)C(=O)N(c1cc(OC)cc(OC)c1)C2 [Compound I-84] | 101 to 500
5 | C=CC(=O)Nc1ccccc1Nc1ncc2c(n1)N(CC(=O)OC(C)(C)C)C(=O)N(c1cc(OC)cc(OC)c1)C2 [Compound I-96] | > 1000
6 | C=CC(=O)NC1CCCCC1Nc1ncc2c(n1)N(CC1CC1)C(=O)N(c1cc(OC)cc(OC)c1Cl)C2 (stereo not drawn) [Compound I-101] | 101 to 500
7 | C=CC(=O)Nc1ccccc1Nc1ncc2c(n1)N(Cc1cccc(F)c1)C(=O)N(c1c(Cl)c(OC)cc(OC)c1Cl)C2 [Compound I-12] | < 100
8 | C=CC(=O)Nc1cc(CN2CCN(CC)CC2)ccc1Nc1ncc2c(n1)N(C)C(=O)N(c1cc(OC)cc(OC)c1)C2 [Compound I-122] | 101 to 500
9 | C=CC(=O)Nc1ccccc1Nc1ncc2c(n1)N(CC)C(=O)N(CC)C2 [Compound I-120] | > 1000
10 | C=CC(=O)N[C@@H]1CCCC[C@@H]1Nc1ncc2c(n1)N(Cc1nccs1)C(=O)N(c1c(Cl)c(OC)cc(OC)c1Cl)C2 [Compound I-93] | > 1000
11 | C=CC(=O)N[C@H]1CCCC[C@H]1Nc1ncc2c(n1)N(Cc1nccs1)C(=O)N(c1c(Cl)c(OC)cc(OC)c1Cl)C2 [Compound I-92] | 101 to 500
12 | COc1cc(OC)cc(N2Cc3cnc(Nc4ccccc4)nc3N(C)C2=O)c1 [Compound I-237] | 101 to 500
13 | CCC(=O)Nc1ccccc1Nc1ncc2c(n1)N(Cc1ccccc1)C(=O)N(c1c(Cl)c(OC)cc(OC)c1Cl)C2 [Compound I-236] | 101 to 500
14 | C=CC(=O)NC1CCCCC1Nc1ncc2c(n1)N(C)C(=O)N(c1cc(OC)cc(OC)c1)C2 (racemic) [Compound I-18] | > 1000
15 | C=CC(=O)Nc1ccccc1Nc1ncc2c(n1)N(Cc1nccs1)C(=O)N(c1c(Cl)c(OC)cc(OC)c1Cl)C2 [Compound I-91] | < 100

same assay, conditions: Homo sapiens; MDA-MB-453 cells; Method A (Western blot) for signaling EC50 determination

Row | EC50 [nM] | Structure (SMILES)
16 | < 100 | C=CC(=O)NCc1ccccc1Nc1ncc2c(n1)N(Cc1cccc(NC(=O)CC)c1)C(=O)N(c1c(Cl)c(OC)cc(OC)c1Cl)C2 [Compound I-179]
17 | < 100 | C=CC(=O)Nc1ccccc1Nc1ncc2c(n1)N(C)C(=O)N(c1c(Cl)c(OC)cc(OC)c1Cl)C2 [Compound I-2]

same assay, conditions: Homo sapiens; MDA-MB-453 cells; Method B (MSD) for signaling EC50 determination

Row | EC50 [nM] | Structure (SMILES)
18 | < 100 | C=CC(=O)Nc1cc(C(=O)NC2CCN(C)CC2)ccc1Nc1ncc2c(n1)N(C)C(=O)N(c1c(Cl)c(OC)cc(OC)c1Cl)C2 [Compound I-150]
19 | < 100 | C=CC(=O)Nc1ccccc1Nc1ncc2c(n1)N(Cc1cscn1)C(=O)N(c1c(Cl)c(OC)cc(OC)c1Cl)C2 [Compound I-86]
20 | < 100 | C=CC(=O)Nc1ccccc1Nc1ncc2c(n1)N(CC1CC1)C(=O)N(c1cc(OC)cc(OC)c1F)C2 [Compound I-109]
21 | < 100 | C=CC(=O)N[C@H]1CCCC[C@H]1Nc1ncc2c(n1)N(Cc1ccn(C)n1)C(=O)N(c1c(Cl)c(OC)cc(OC)c1Cl)C2 [Compound I-147]
22 | < 100 | C=CC(=O)Nc1ccccc1Nc1ncc2c(n1)N(Cc1ccc(Cl)c(OC)c1)C(=O)N(c1c(Cl)c(OC)cc(OC)c1Cl)C2 [Compound I-24]
23 | 101 to 500 | C=CC(=O)NC1CCCC1Nc1ncc2c(n1)N(C)C(=O)N(c1c(Cl)c(OC)cc(OC)c1Cl)C2 (racemic) [Compound I-112]
24 | < 100 | C=CC(=O)Nc1cc(-c2cnn(C)c2)ccc1Nc1ncc2c(n1)N(C)C(=O)N(c1cc(OC)cc(OC)c1)C2 [Compound I-77]
25 | < 100 | C=CC(=O)Nc1cc(N2CCN(C(=O)OC(C)(C)C)CC2)ccc1Nc1ncc2c(n1)N(C)C(=O)N(c1c(Cl)c(OC)cc(OC)c1Cl)C2 [Compound I-62]
26 | 101 to 500 | C=C(C)C(=O)Nc1ccccc1Nc1ncc2c(n1)N(C)C(=O)N(c1c(Cl)c(OC)cc(OC)c1Cl)C2 [Compound I-142]
27 | < 100 | C=CC(=O)Nc1ccccc1Nc1ncc2c(n1)N(Cc1ccc(F)c(N)c1)C(=O)N(c1c(Cl)c(OC)cc(OC)c1Cl)C2 [Compound I-144]
28 | 101 to 500 | C=CC(=O)Nc1ccccc1Nc1ncc2c(n1)N(Cc1cccc(C#N)c1)C(=O)N(c1cc(OC)cc(OC)c1)C2 [Compound I-90]
29 | < 100 | C=CS(=O)(=O)Nc1ccccc1Nc1ncc2c(n1)N(C)C(=O)N(c1cc(OC)cc(OC)c1)C2 [Compound I-67]
30 | < 100 | C=CC(=O)Nc1ccc(-c2cnn(C)c2)cc1Nc1ncc2c(n1)N(C)C(=O)N(c1c(Cl)c(OC)cc(OC)c1Cl)C2 [Compound I-74]
31 | < 100 | C=CC(=O)Nc1ccccc1Nc1ncc2c(n1)N(Cc1csc(C)n1)C(=O)N(c1c(Cl)c(OC)cc(OC)c1Cl)C2 [Compound I-134]
32 | < 100 | C=CC(=O)Nc1ccccc1Nc1ncc2c(n1)N(Cc1cccc(OC)c1)C(=O)N(c1c(Cl)c(OC)cc(OC)c1Cl)C2 [Compound I-28]
33 | 101 to 500 | C=CC(=O)Nc1ccc(-c2nccs2)cc1Nc1ncc2c(n1)N(C)C(=O)N(c1cc(OC)cc(OC)c1)C2 [Compound I-78]
34 | 101 to 500 | C=CC(=O)NC1CCCCC1Nc1ncc2c(n1)N(CC1CC1)C(=O)N(c1c(Cl)c(OC)cc(OC)c1Cl)C2 (racemic) [Compound I-129]
35 | < 100 | C=CCN1C(=O)N(c2cc(OC)cc(OC)c2)Cc2cnc(Nc3ccccc3NC(=O)C=C)nc21 [Compound I-32]
36 | 101 to 500 | C=CC(=O)Nc1ccc(N2CCN(CC)CC2)cc1Nc1ncc2c(n1)N(C)C(=O)N(c1cc(OC)cc(OC)c1)C2 [Compound I-30]
37 | < 100 | C=CC(=O)Nc1cc(N2CCN(CC)CC2)ccc1Nc1ncc2c(n1)N(C)C(=O)N(c1cc(OC)cc(OC)c1)C2 [Compound I-15]
38 | > 1000 | C=CC(=O)Nc1cc(Cl)c(Cl)cc1Nc1ncc2c(n1)N(Cc1ccccc1)C(=O)N(c1c(Cl)c(OC)cc(OC)c1Cl)C2 [Compound I-11]

Row | EC50 [nM] | Structure (SMILES)
39 | < 100 | C=CC(=O)Nc1cc(C2=CCN(CC)CC2)ccc1Nc1ncc2c(n1)N(C)C(=O)N(c1cc(OC)cc(OC)c1)C2 [Compound I-56]
40 | < 100 | C=CC(=O)Nc1cc(N2CCN(CCOC)CC2)ccc1Nc1ncc2c(n1)N(C)C(=O)N(c1cc(OC)cc(OC)c1)C2 [Compound I-20]
41 | 101 to 500 | C=CC(=O)Nc1cc(N2CCCCC2)ccc1Nc1ncc2c(n1)N(C)C(=O)N(c1cc(OC)cc(OC)c1)C2 [Compound I-31]
42 | < 100 | C=CC(=O)Nc1ccccc1Nc1ncc2c(n1)N(C)C(=O)N(c1cc(OC)cc(OC)c1F)C2 [Compound I-108]
43 | < 100 | C=CC(=O)Nc1cc(-c2nnn(C)n2)ccc1Nc1ncc2c(n1)N(C)C(=O)N(c1c(Cl)c(OC)cc(OC)c1Cl)C2 [Compound I-145]
44 | < 100 | C=CC(=O)N[C@H]1CCCC[C@H]1Nc1ncc2c(n1)N(Cc1ccccc1)C(=O)N(c1c(Cl)c(OC)cc(OC)c1Cl)C2 [Compound I-82]
45 | 101 to 500 | C=CC(=O)Nc1ccccc1Nc1ncc2c(n1)N(CC1CCN(C(=O)OC(C)(C)C)CC1)C(=O)N(c1cc(OC)cc(OC)c1)C2 [Compound I-60]
46 | < 100 | C=CC(=O)Nc1cc(N2CCOCC2)ccc1Nc1ncc2c(n1)N(C)C(=O)N(c1cc(OC)cc(OC)c1)C2 [Compound I-17]
47 | < 100 | C=CC(=O)Nc1ccccc1Nc1ncc2c(n1)N(CC(F)F)C(=O)N(c1c(Cl)c(OC)cc(OC)c1Cl)C2 [Compound I-103]
48 | < 100 | C=CC(=O)Nc1ccccc1Nc1ncc2c(n1)N(C)C(=O)N(c1cc(OC)cc(OC)c1Cl)C2 [Compound I-75]
49 | > 1000 | C=CC(=O)Nc1ccccc1Nc1ncc2c(n1)N(CC1CCNCC1)C(=O)N(c1cc(OC)cc(OC)c1)C2 [Compound I-40]
50 | < 100 | C=CC(=O)Nc1ccccc1Nc1ncc2c(n1)N(C1CC1)C(=O)N(c1c(Cl)c(OC)cc(OC)c1Cl)C2 [Compound I-23]
51 | < 100 | C=CC(=O)Nc1ccccc1Nc1ncc2c(n1)N(CC1CC1)C(=O)N(c1c(Cl)c(OC)cc(OC)c1Cl)C2 [Compound I-130]
52 | < 100 | C=CC(=O)Nc1ccccc1Nc1ncc2c(n1)N(C1CC1)C(=O)N(c1cc(OC)cc(OC)c1)C2 [Compound I-34]
53 | < 100 | C=CC(=O)N[C@H]1CCCC[C@H]1Nc1ncc2c(n1)N(Cc1cn[nH]c1)C(=O)N(c1c(Cl)c(OC)cc(OC)c1Cl)C2 [Compound I-152]
54 | < 100 | C=CC(=O)Nc1cc(N2CCN(C(=O)CCC(=O)O)CC2)ccc1Nc1ncc2c(n1)N(C)C(=O)N(c1c(Cl)c(OC)cc(OC)c1Cl)C2 [Compound I-123]
55 | 101 to 500 | C=CC(=O)NC1CCCCC1Nc1ncc2c(n1)N(Cc1cccnc1)C(=O)N(c1c(Cl)c(OC)cc(OC)c1Cl)C2 (racemic) [Compound I-35]
56 | 101 to 500 | C=CC(=O)NC1CCCCC1Nc1ncc2c(n1)N(Cc1cccc(NS(C)(=O)=O)c1)C(=O)N(c1c(Cl)c(OC)cc(OC)c1Cl)C2 (racemic) [Compound I-89]
57 | > 1000 | C=CC(=O)N[C@@H]1CCCC[C@@H]1Nc1ncc2c(n1)N(Cc1ccccc1)C(=O)N(c1c(Cl)c(OC)cc(OC)c1Cl)C2 [Compound I-66]
58 | 501 to 999 | C=CC(=O)Nc1ccc(C)cc1Nc1ncc2c(n1)N(C)C(=O)N(c1cc(OC)cc(OC)c1)C2 [Compound I-49]

same assay, conditions: Homo sapiens; MDA-MB-453 cells; Method C (ELISA) for signaling EC50 determination

Row | EC50 [nM] | Structure (SMILES)
59 | < 100 | C=CC(=O)Nc1ccccc1CNc1ncc2c(n1)N(Cc1cccc(NC(=O)CC)c1)C(=O)N(c1c(Cl)c(OC)cc(OC)c1Cl)C2 [Compound I-180]
60 | < 100 | C=CC(=O)Nc1ccccc1Nc1ncc2c(n1)N(Cc1ccccc1)C(=O)N(c1c(Cl)c(OC)cc(OC)c1Cl)C2 [Compound I-3]

From patent publication US10774052B2, “Heteroaryl compounds and uses thereof” (Celgene CAR LLC, priority 2013, dated 2020)
